Data published in patent US20250163055A1, “POLYMORPH OF JAK TYROSINE KINASE INHIBITOR AND PREPARATION METHOD THEREFOR” (Prime Gene Therapeutics Co., Ltd., priority 2022, published 2025).
In brackets after ≈: the same amount, converted by molar mass. Where two headings read alike, the source gives them in different places.

Columns and labels:
[1] = Solubility of crystal forms in 20% propylene glycol at 32° C. over time; format: physicochemical; conditions: aqueous with cosolvent or surfactant or cyclodextrin, thermodynamic from solid
Source text: (§1) Solubility Investigation of Different Crystal Forms

[2] = Solubility measurement at different pH (37° C., 24 h); format: physicochemical; conditions: for solubility at 24 h: 37 °C, thermodynamic from solid, read-out: solubility, concentration
Source text: as §1

[3] = Long-term (24-months) stability of crystal forms; format: physicochemical; conditions: for stability of the crystal form (result in words): long-term stability investigation, summary; for Appearance / Content / Loss on Drying / Related Substances, Most Unknown Impurity / Related Substances, Total Impurities: long-term stability
Source text: The crystals prepared in examples 1, 3 and 6 were selected, and the stability of the crystal forms 1, IIa and IIb was investigated in accordance with the stability research guidelines issued by the National Medical Product Administration. The crystals were packed in pharmaceutical low-density polyethylene bags, and 24 months long-term stability was investigated.

[4] = Transdermal test of gel preparations (transdermal rate); format: in vitro ADME; conditions: gel preparation; receiving medium 5.0% Tween 80, pH 5.5 phosphate
Source text: Take the crystal obtained in Examples 1 or 6 and prepare it into gel preparation (the process for preparing the gel preparation can be: after stirring PEG400, propylene glycol, glycerin, ethanol and the crystal of Example 1 or 6, mix with EDTA aqueous solution, add in the swelled carbomer aqueous solution, adjust pH to be 6 with 10% triethanolamine solution, to obtain the gel). Measure respective transdermal rate (receiving medium 5.0% Tween 80, pH 5.5 phosphate).

[5] = Pharmacokinetic experiment in male SD rats (oral, intravenous, transdermal); format: in vivo, rat; conditions: for AUC(0-inf): read-out: AUC0-inf
Procedure: The solid powders of Examples 1 and 6, and the hydrogel preparations thereof were taken, and the PK values of rats administered by oral gavage and transdermal application were respectively determined. Male SD rats were divided into groups, 3 rats in each group, and were administered the compounds obtained in Examples 1 and 6 by oral gavage (oral group). administered Example 1 intravenously (intravenous group), and administered the gel preparations prepared from the compounds of Examples 1 and 6 topically to the skin (transdermal group). Animals were fasted overnight before the experiment, and the fasting time ranged from 10 hours before administration to 4 hours after administration. Blood was collected at 0.25, 0.5, 1, 2, 4, 6, 8 and 24 hours after administration in oral group and transdermal group, and at 0.083, 0.25, 0.5, 1, 2, 4, 6, 8 and 24 hours after administration in intravenous group. After being anesthetized with isoflurane using a small animal anesthesia machine, 0.3 mL of whole blood was collected through the fundus venous plexus and placed in a heparin anticoagulant tube. The blood samples were centrifuged at 4° C. and 4000 rpm for 5 min, and plasma was transferred to a centrifuge tube and placed at −80° C. until analysis. Plasma was extracted by protein precipitation method, and the extract was analyzed by LC/MS/MS. The transdermal group was administered for 24 hours and the skin at the administration site was peeled off after washing off the epidermal drug, and the drug content in the skin was analyzed by LC/MS/MS after homogenization.

[6] = male, SD, rat, plasma, iv, intravenous group
[7] = male, SD, rat, plasma, po, oral group (gavage)

Work on CC(C)S(=O)(=O)N1CC(CC#N)(n2cc(-c3ncnc4[nH]ccc34)c(N)n2)C1 [Example 1, 2-{3-[3-amino-4-(7H-pyrrolo[2,3-d]pyrimidin-4-yl)-1H-pyrazol-1-yl]-1-(isopropylsulfonyl)azetidin-3-yl}acetonitrile crystal form I] yielded a solubility at 18 h [1] of 20.2 µg/mL (≈ 50.4 µM), a solubility at 24 h ([2]; pH 6.8, aqueous buffer, pH 6.8, 37° C.) of 1.2 µg/mL (≈ 3 µM) and a solubility at 24 h ([2]; pH 7, aqueous buffer, pH 7.0, 37° C.) of 1.3 µg/mL (≈ 3.25 µM). For the same compound, the solubility at 24 h ([2]; pH 8, aqueous buffer, pH 8.0, 37° C.) was 1.2 µg/mL (≈ 3 µM), the “solubility compared with crystal form IIb (result in words)” value ([2]; summary) was “higher solubility and oral bioavailability than crystal form IIb” and the “stability of the crystal form (result in words)” value ([3]; listed as Crystal form I) was “good stability”. The “stability of the crystal form (result in words)” value ([3]; listed as crystal form I) was “better chemical stability”, the Appearance ([3]; 0 month) was “Off-white powder” and the Content ([3]; 0 month) was 99.9%. The “Loss on Drying” value ([3]; 0 month) was 0.08%, the “Related Substances, Most Unknown Impurity” value ([3]; 0 month) was 0.17% and the “Related Substances, Total Impurities” value ([3]; 0 month) was 0.58%. The Appearance ([3]; 3 months) was “Off-white powder”, the Content ([3]; 3 months) was 100.1% and the “Loss on Drying” value ([3]; 3 months) was 0.06%. The “Related Substances, Most Unknown Impurity” value ([3]; 3 months) was 0.16%, the “Related Substances, Total Impurities” value ([3]; 3 months) was 0.57% and the Appearance ([3]; 6 months) was “Off-white powder”. For the same compound, the Content ([3]; 6 months) was 100.0%, the “Loss on Drying” value ([3]; 6 months) was 0.08% and the “Related Substances, Most Unknown Impurity” value ([3]; 6 months) was 0.17%. The “Related Substances, Total Impurities” value ([3]; 6 months) was 0.57%, the Appearance ([3]; 9 months) was “Off-white powder” and the Content ([3]; 9 months) was 99.8%. For the same compound, the “Loss on Drying” value ([3]; 9 months) was 0.11%, the “Related Substances, Most Unknown Impurity” value ([3]; 9 months) was 0.17% and the “Related Substances, Total Impurities” value ([3]; 9 months) was 0.57%. For the same compound, the Appearance ([3]; 12 months) was “Off-white powder”, the Content ([3]; 12 months) was 99.9% and the “Loss on Drying” value ([3]; 12 months) was 0.09%. For the same compound, the “Related Substances, Most Unknown Impurity” value ([3]; 12 months) was 0.17%, the “Related Substances, Total Impurities” value ([3]; 12 months) was 0.55% and the Appearance ([3]; 18 months) was “Off-white powder”. The Content ([3]; 18 months) was 99.7%, the “Loss on Drying” value ([3]; 18 months) was 0.12% and the “Related Substances, Most Unknown Impurity” value ([3]; 18 months) was 0.18%. For the same compound, the “Related Substances, Total Impurities” value ([3]; 18 months) was 0.62%, the Appearance ([3]; 24 months) was “Off-white powder” and the Content ([3]; 24 months) was 99.8%. The “Loss on Drying” value ([3]; 24 months) was 0.10%, the “Related Substances, Most Unknown Impurity” value ([3]; 24 months) was 0.16% and the “Related Substances, Total Impurities” value ([3]; 24 months) was 0.59%. For the same compound, the “transdermal performance / transdermal absorption (result in words)” value [4] was “better transdermal performance”, the half-life [5, 6] was 2.49 h and the AUC(0-inf) [5, 6] was 496 ng·h/mL. The half-life [5, 7] was 5.33 h, the AUC(0-inf) [5, 7] was 941 ng·h/mL and the Cmax ([5]; male, SD, rat, plasma, po, oral group (gavage), read-out: Cmax) was 111 ng/mL. The Tmax ([5]; male, SD, rat, plasma, po, oral group (gavage), read-out: Tmax) was 2.67 h, the F ([5]; oral group (gavage)) was 37% and the clearance ([5]; rat, plasma, intravenous group) was 69.2 mL/min/kg. It also gave a Vd ([5]; rat, plasma, intravenous group, read-out: Vss) of 4.93 L/kg.
